Like-named read-outs stand apart in the source and are kept apart here. Residues, ends and D or L forms follow the SMILES beside them.
Columns and labels:
Scrib PDZ-2 domain = target: T1, Scrib PDZ-2 domain (Homo sapiens, UniProt Q14160); test: In-solution fluorescence polarization binding of peptides to Scrib PDZ2
T1 construct: ROC curves of DomPep prediction for the three Scrib PDZ-1/2/3 domains
T1 sequence (Q14160 862-950 limits assumed): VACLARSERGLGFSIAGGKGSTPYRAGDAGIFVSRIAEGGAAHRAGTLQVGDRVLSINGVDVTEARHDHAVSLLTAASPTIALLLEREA

Scrib PDZ-1 domain = target: T2, Scrib PDZ-1 domain (Homo sapiens, UniProt Q14160); test: In-solution fluorescence polarization binding of peptides to Scrib PDZ1
T2 construct: ROC curves of DomPep prediction for the three Scrib PDZ-1/2/3 domains
T2 sequence (Q14160 728-815 limits assumed): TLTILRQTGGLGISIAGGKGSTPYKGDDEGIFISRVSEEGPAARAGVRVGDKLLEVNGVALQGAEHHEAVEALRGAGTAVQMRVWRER

[1] = Kd value of 100 µM applied as binding cutoff, NB without definition, read-out: Kd (µM) PDZ2
[2] = Kd value of 100 µM applied as binding cutoff, NB without definition, read-out: Kd (µM) PDZ1

Structure (SMILES): CC(C)C[C@H](NC(=O)[C@@H](NC(=O)[C@H](CC(N)=O)NC(=O)[C@@H](N)CCCNC(=N)N)[C@@H](C)O)C(=O)N[C@@H](Cc1ccc(O)cc1)C(=O)N[C@@H](Cc1ccccc1)C(=O)N[C@@H](CO)C(=O)N[C@H](C(=O)N[C@@H](CC(=O)O)C(=O)N[C@H](C(=O)O)C(C)C)[C@@H](C)O [ABR] (H-RNTLYFSTDV-OH)
- Kd (Scrib PDZ-2 domain; [1]): 10.4 µM
- Kd (Scrib PDZ-1 domain; [2]): 12.5 µM

Structure (SMILES): CC(C)C[C@H](NC(=O)[C@H](CO)NC(=O)[C@@H](NC(=O)[C@@H](NC(=O)[C@@H](NC(=O)[C@H](Cc1ccccc1)NC(=O)[C@@H](NC(=O)[C@H](CC(=O)O)NC(=O)[C@H](CCC(=O)O)NC(=O)[C@@H]1CCCN1)[C@@H](C)O)[C@@H](C)O)C(C)C)[C@@H](C)O)C(=O)O [AHDC1] (H-PEDTFTVTSL-OH)
- Kd (Scrib PDZ-2 domain; [1]): > 100 µM
- Kd (Scrib PDZ-1 domain; [2]): 19.2 µM

Structure (SMILES): CC(C)C[C@H](NC(=O)[C@H](CO)NC(=O)[C@@H](NC(=O)[C@H](CC(=O)O)NC(=O)[C@@H](NC(=O)[C@H](CC(C)C)NC(=O)[C@H](CCC(N)=O)NC(=O)CNC(=O)[C@@H]1CCCN1C(=O)[C@@H](N)CCC(N)=O)C(C)C)[C@@H](C)O)C(=O)O [ANKS4B] (H-QPGQLVDTSL-OH)
- Kd (Scrib PDZ-2 domain; [1]): > 100 µM
- Kd (Scrib PDZ-1 domain; [2]): > 100 µM

Structure (SMILES): CC(C)C[C@H](NC(=O)[C@H](Cc1ccc(O)cc1)NC(=O)[C@H](CO)NC(=O)CNC(=O)[C@H](CO)NC(=O)[C@@H](N)Cc1c[nH]cn1)C(=O)N[C@H](C(=O)N[C@H](C(=O)N[C@@H](CO)C(=O)N[C@H](C(=O)O)C(C)C)[C@@H](C)O)C(C)C [APC] (H-HSGSYLVTSV-OH)
- Kd (Scrib PDZ-2 domain; [1]): 9.5 µM
- Kd (Scrib PDZ-1 domain; [2]): 12.3 µM

Structure (SMILES): CC(C)C[C@H](NC(=O)[C@@H]1CCCN1C(=O)[C@@H](NC(=O)[C@H](CCC(=O)O)NC(=O)[C@H](CCCCN)NC(=O)[C@H](CCCCN)NC(=O)[C@H](Cc1ccc(O)cc1)NC(=O)[C@H](CC(N)=O)NC(=O)[C@H](Cc1ccccc1)NC(=O)[C@@H](N)CO)[C@@H](C)O)C(=O)O [ARD50] (H-SFNYKKETPL-OH)
- Kd (Scrib PDZ-2 domain; [1]): 34.3 µM
- Kd (Scrib PDZ-1 domain; [2]): 23.6 µM

Structure (SMILES): CSCC[C@H](N)C(=O)N[C@@H](CCC(=O)O)C(=O)N[C@@H](CCCNC(=N)N)C(=O)N[C@@H](CC(C)C)C(=O)N[C@@H](CCCNC(=N)N)C(=O)N[C@H](C(=O)N[C@@H](CCC(=O)O)C(=O)N[C@H](C(=O)N[C@@H](CC(=O)O)C(=O)N[C@H](C(=O)O)C(C)C)[C@@H](C)O)C(C)C [ARHGEF16] (H-MERLRVETDV-OH)
- Kd (Scrib PDZ-2 domain; [1]): 7.7 µM
- Kd (Scrib PDZ-1 domain; [2]): 27.5 µM

Structure (SMILES): CC(C)C[C@H](NC(=O)[C@@H](NC(=O)CNC(=O)[C@H](CC(N)=O)NC(=O)[C@H](CCCCN)NC(=O)[C@H](CO)NC(=O)[C@H](CC(=O)O)NC(=O)[C@H](Cc1ccc(O)cc1)NC(=O)[C@@H](N)CCCNC(=N)N)[C@@H](C)O)C(=O)N[C@H](C(=O)O)C(C)C [C11orf52] (H-RYDSKNGTLV-OH)
- Kd (Scrib PDZ-2 domain; [1]): > 100 µM
- Kd (Scrib PDZ-1 domain; [2]): > 100 µM

Structure (SMILES): CC[C@H](C)[C@H](N)C(=O)N[C@@H](CC(C)C)C(=O)N[C@@H](CCCNC(=N)N)C(=O)N[C@@H](CCCCN)C(=O)N[C@@H](CO)C(=O)N[C@H](C(=O)N[C@H](C(=O)N[C@H](C(=O)N[C@H](C(=O)N[C@H](C(=O)O)C(C)C)[C@@H](C)O)[C@@H](C)O)[C@@H](C)O)[C@@H](C)O [DSC54] (H-ILRKSTTTTV-OH)
- Kd (Scrib PDZ-2 domain; [1]): > 100 µM
- Kd (Scrib PDZ-1 domain; [2]): > 100 µM

Structure (SMILES): CSCC[C@H](NC(=O)CNC(=O)[C@H](CC(N)=O)NC(=O)[C@@H](NC(=O)[C@H](CC(C)C)NC(=O)[C@H](CCC(N)=O)NC(=O)[C@@H](N)C(C)C)C(C)C)C(=O)N[C@H](C(=O)N1CCC[C@H]1C(=O)N[C@@H](CC(C)C)C(=O)O)C(C)C [EPHA5] (H-VQLVNGMVPL-OH)
- Kd (Scrib PDZ-2 domain; [1]): 75.7 µM
- Kd (Scrib PDZ-1 domain; [2]): > 100 µM

Structure (SMILES): CC(C)C[C@H](NC(=O)[C@H](CS)NC(=O)[C@H](Cc1c[nH]cn1)NC(=O)[C@H](CC(C)C)NC(=O)[C@H](C)NC(=O)[C@H](CCC(=O)O)NC(=O)[C@H](CC(C)C)NC(=O)[C@H](CCC(=O)O)NC(=O)[C@@H]1CCCN1C(=O)[C@@H](N)CC(=O)O)C(=O)O [EPHA8] (H-DPELEALHCL-OH)
- Kd (Scrib PDZ-2 domain; [1]): 24.9 µM
- Kd (Scrib PDZ-1 domain; [2]): > 100 µM

Structure (SMILES): CC(C)C[C@H](NC(=O)[C@H](CO)NC(=O)[C@@H](NC(=O)[C@H](CCC(=O)O)NC(=O)[C@H](CCC(=O)O)NC(=O)[C@H](CS)NC(=O)[C@@H](NC(=O)[C@H](CCCNC(=N)N)NC(=O)[C@@H](NC(=O)[C@@H]1CCCN1)C(C)C)C(C)C)[C@@H](C)O)C(=O)O [FAM105B] (H-PVRVCEETSL-OH)
- Kd (Scrib PDZ-2 domain; [1]): 17.6 µM
- Kd (Scrib PDZ-1 domain; [2]): 1.9 µM

Structure (SMILES): CC[C@H](C)[C@H](NC(=O)[C@H](CC(C)C)NC(=O)[C@H](CCC(N)=O)NC(=O)[C@H](CCSC)NC(=O)[C@H](CC(N)=O)NC(=O)[C@H](Cc1ccccc1)NC(=O)[C@@H](N)CO)C(=O)N[C@@H](CO)C(=O)N[C@@H](CCC(N)=O)C(=O)N[C@H](C(=O)O)C(C)C [FAM126B] (H-SFNMQLISQV-OH)
- Kd (Scrib PDZ-2 domain; [1]): > 100 µM
- Kd (Scrib PDZ-1 domain; [2]): > 100 µM

Structure (SMILES): CC(C)C[C@H](NC(=O)[C@@H](N)C(C)C)C(=O)N[C@@H](Cc1ccc(O)cc1)C(=O)N1CCC[C@H]1C(=O)N[C@@H](CCCNC(=N)N)C(=O)N[C@@H](CCC(=O)O)C(=O)NCC(=O)N[C@H](C(=O)N[C@@H](CCC(=O)O)C(=O)N[C@H](C(=O)O)C(C)C)[C@@H](C)O [FOXl1] (H-VLYPREGTEV-OH)
- Kd (Scrib PDZ-2 domain; [1]): 24.7 µM
- Kd (Scrib PDZ-1 domain; [2]): > 100 µM

Structure (SMILES): CSCC[C@H](NC(=O)[C@H](CC(C)C)NC(=O)[C@@H](NC(=O)[C@H](C)NC(=O)[C@H](CCSC)NC(=O)[C@H](CCCCN)NC(=O)[C@H](CC(N)=O)NC(=O)[C@@H]1CCCN1C(=O)[C@H](CC(N)=O)NC(=O)[C@@H](N)CC(C)C)[C@@H](C)O)C(=O)O [GLO1] (H-LNPNKMATLM-OH)
- Kd (Scrib PDZ-2 domain; read-out: Kd (µM) PDZ2, Kd value of 100 µM applied as binding cutoff, NB without definition): > 100 µM
- Kd (Scrib PDZ-1 domain; read-out: Kd (µM) PDZ1, Kd value of 100 µM applied as binding cutoff, NB without definition): > 100 µM

Structure (SMILES): CSCC[C@H](NC(=O)[C@H](CCCNC(=N)N)NC(=O)[C@H](CCCCN)NC(=O)[C@H](CCC(=O)O)NC(=O)[C@H](C)NC(=O)[C@@H](N)Cc1ccc(O)cc1)C(=O)N[C@@H](CC(C)C)C(=O)N[C@H](C(=O)N[C@@H](CCC(=O)O)C(=O)N[C@H](C(=O)O)C(C)C)[C@@H](C)O [KCNA6] (H-YAEKRMLTEV-OH)
- Kd (Scrib PDZ-2 domain; [1]): > 100 µM
- Kd (Scrib PDZ-1 domain; [2]): > 100 µM

Structure (SMILES): CC[C@H](C)[C@H](NC(=O)[C@H](CCCNC(=N)N)NC(=O)[C@@H](NC(=O)[C@H](CO)NC(=O)[C@H](CC(C)C)NC(=O)[C@H](C)NC(=O)[C@@H](N)CO)C(C)C)C(=O)N[C@@H](CO)C(=O)N[C@@H](CC(N)=O)C(=O)N[C@H](C(=O)O)C(C)C [KCNJ10] (H-SALSVRISNV-OH)
- Kd (Scrib PDZ-2 domain; [1]): > 100 µM
- Kd (Scrib PDZ-1 domain; [2]): > 100 µM

Structure (SMILES): CC(C)C[C@H](NC(=O)[C@H](CCCNC(=N)N)NC(=O)[C@@H]1CCCN1C(=O)[C@H](Cc1c[nH]cn1)NC(=O)[C@H](CO)NC(=O)[C@@H]1CCCN1)C(=O)N[C@@H](CCC(N)=O)C(=O)N[C@H](C(=O)N[C@@H](Cc1c[nH]cn1)C(=O)N[C@H](C(=O)O)C(C)C)[C@@H](C)O [KIRREL2] (H-PSHPRLQTHV-OH)
- Kd (Scrib PDZ-2 domain; [1]): > 100 µM
- Kd (Scrib PDZ-1 domain; [2]): > 100 µM

Structure (SMILES): CC(C)C[C@H](NC(=O)[C@H](CC(=O)O)NC(=O)[C@@H](NC(=O)[C@H](CO)NC(=O)[C@H](C)NC(=O)[C@H](CCCCN)NC(=O)[C@H](C)NC(=O)[C@@H](NC(=O)[C@H](CC(C)C)NC(=O)[C@@H](N)C(C)C)[C@@H](C)O)[C@@H](C)O)C(=O)O [LPP] (H-VLTAKASTDL-OH)
- Kd (Scrib PDZ-2 domain; [1]): > 100 µM
- Kd (Scrib PDZ-1 domain; [2]): 24.2 µM

Structure (SMILES): CC(C)C[C@H](NC(=O)[C@@H]1CCCN1C(=O)[C@@H](NC(=O)[C@H](CCC(=O)O)NC(=O)[C@H](CCCCN)NC(=O)[C@H](CO)NC(=O)[C@@H](NC(=O)[C@H](CCCNC(=N)N)NC(=O)[C@H](C)NC(=O)CN)C(C)C)[C@@H](C)O)C(=O)O [MAPK12] (H-GARVSKETPL-OH)
- Kd (Scrib PDZ-2 domain; [1]): 56.1 µM
- Kd (Scrib PDZ-1 domain; [2]): 20.3 µM

Structure (SMILES): CC[C@H](C)[C@H](NC(=O)[C@H](CCCNC(=N)N)NC(=O)[C@@H](NC(=O)[C@H](CCCNC(=N)N)NC(=O)[C@H](CO)NC(=O)[C@H](C)NC(=O)[C@@H](N)CC(N)=O)[C@@H](C)O)C(=O)N[C@H](C(=O)N[C@@H](Cc1ccccc1)C(=O)N[C@H](C(=O)O)C(C)C)[C@@H](C)O [MCM7] (H-NASRTRITFV-OH)
- Kd (Scrib PDZ-2 domain; [1]): > 100 µM
- Kd (Scrib PDZ-1 domain; [2]): > 100 µM

Structure (SMILES): CC[C@H](C)[C@H](NC(=O)[C@@H]1CCCN1C(=O)[C@H](Cc1c[nH]cn1)NC(=O)[C@@H](NC(=O)[C@@H](N)Cc1ccccc1)C(C)C)C(=O)N[C@@H](CC(C)C)C(=O)N[C@@H](CCC(N)=O)C(=O)N[C@@H](CO)C(=O)N[C@@H](C)C(=O)N[C@H](C(=O)O)C(C)C [PRKCA] (H-FVHPILQSAV-OH)
- Kd (Scrib PDZ-2 domain; [1]): 46 µM
- Kd (Scrib PDZ-1 domain; [2]): 17.4 µM

Structure (SMILES): CC(C)[C@H](NC(=O)[C@H](CO)NC(=O)[C@@H](NC(=O)[C@@H](NC(=O)[C@@H](NC(=O)[C@H](CCCNC(=N)N)NC(=O)[C@@H](NC(=O)[C@H](CCCCN)NC(=O)[C@H](C)NC(=O)[C@@H](N)CO)C(C)C)[C@@H](C)O)C(C)C)[C@@H](C)O)C(=O)O [RASL11B] (H-SAKVRTVTSV-OH)
- Kd (Scrib PDZ-2 domain; [1]): > 100 µM
- Kd (Scrib PDZ-1 domain; [2]): > 100 µM

Structure (SMILES): CSCC[C@H](NC(=O)[C@@H](N)C(C)C)C(=O)N[C@@H](CCCNC(=N)N)C(=O)N[C@@H](CC(C)C)C(=O)N[C@@H](CCC(N)=O)C(=O)N[C@@H](CO)C(=O)N[C@@H](CCC(=O)O)C(=O)N[C@H](C(=O)N[C@@H](CO)C(=O)N[C@H](C(=O)O)C(C)C)[C@@H](C)O [VANGL2] (H-VMRLQSETSV-OH)
- Kd (Scrib PDZ-1 domain; [2]): 21.6 µM

Reference: paper PMC3189207, “DomPep—A General Method for Predicting Modular Domain-Mediated Protein-Protein Interactions” (PLoS ONE, 2011)
